Reference: ChEMBL document CHEMBL5154876, “Design, synthesis and promising anti-tumor efficacy of novel imidazo[1,2-a]pyridine derivatives as potent autotaxin allosteric inhibitors” (Eur J Med Chem, 2022)

Legend:
Autotaxin = Autotaxin (Homo sapiens, UniProt Q13822); assay: Negative allosteric modulation activity against human ATX using FS-3 as substrate preincubated for 45 mins followed by substrate addition and measured every 30 mins by multi-mode microplate reader
MDA-MB-231 = assay: Cytotoxicity against human MDA-MB-231 cells assessed as inhibition of cell growth incubated for 72 hrs by MTT assay; assay type: functional, cell-based; conditions: MDA-MB-231, 72 h
Hep 3B2 = assay: Cytotoxicity against human Hep3B cells assessed as inhibition of cell growth incubated for 72 hrs by MTT assay; assay type: functional, cell-based
A549 = assay: Cytotoxicity against human A549 cells assessed as inhibition of cell growth incubated for 72 hrs by MTT assay; assay type: functional, cell-based; conditions: A549, 72 h
RAW264.7 = assay: Cytotoxicity against mouse RAW264.7 cells assessed as inhibition of cell growth incubated for 72 hrs by MTT assay; assay type: functional, cell-based; conditions: RAW264.7, 72 h
MCF7 = assay: Cytotoxicity against human MCF-7 cells assessed as inhibition of cell growth incubated for 72 hrs by MTT assay; assay type: functional, cell-based; conditions: MCF7, 72 h
NCI-H2228 = assay: Cytotoxicity against human H2228 cells assessed as inhibition of cell growth incubated for 72 hrs by MTT assay; assay type: functional, cell-based; conditions: NCI-H2228, 72 h
NCI-H1581 = assay: Cytotoxicity against human NCI-H1581 cells assessed as inhibition of cell growth incubated for 72 hrs by MTT assay; assay type: functional, cell-based; conditions: NCI-H1581, 72 h

Structure (SMILES) | IC50 (Autotaxin) | IC50 (MDA-MB-231) | IC50 (Hep 3B2) | IC50 (A549) | IC50 (RAW264.7) | IC50 (MCF7) | IC50 (NCI-H2228) | IC50 (NCI-H1581)
CCc1nc2c(C)cc(-c3ccc(CN4CCSCC4)cc3)cn2c1NC(=O)OCc1ccc(F)c(F)c1 | 0.287 µM | > 20 µM | > 20 µM | > 20 µM |  |  |  | 
CCc1nc2c(C)cc(-c3ccc(CN4CCC(O)CC4)cc3)cn2c1NC(=O)OCc1cc(Cl)cc(Cl)c1 | 0.017 µM | 1.58 µM |  |  | 4.58 µM | 5.32 µM | 7.36 µM | 4.8 µM
CCc1nc2c(C)cc(-c3ccc(CN4CCCCC4)cc3)cn2c1NC(=O)OCc1cc(Cl)cc(Cl)c1 | 0.164 µM |  |  |  |  |  |  | 
CCc1nc2c(C)cc(-c3ccc(CN4CCSCC4)cc3)cn2c1NC(=O)OCc1cc(Cl)cc(Cl)c1 | 0.091 µM |  | > 20 µM | > 20 µM |  | > 20 µM |  | 
CCc1nc2c(C)cc(-c3ccc(CN4CCOCC4)cc3)cn2c1NC(=O)OCc1ccc(F)cc1 | 0.0513 µM | > 20 µM | > 20 µM | > 20 µM | > 20 µM | > 20 µM | > 20 µM | > 20 µM
CCc1nc2c(C)cc(-c3ccc(CN4CCN(C)CC4)cc3)cn2c1NC(=O)OCc1cc(Cl)cc(Cl)c1 | 0.217 µM |  | 4.9 µM | 4.02 µM | 1.41 µM | 5.78 µM |  | 
CCc1nc2c(C)cc(-c3ccc(CN4CCN(CC)CC4)cc3)cn2c1NC(=O)OCc1ccc(C(F)(F)F)cc1 | 0.234 µM |  |  |  |  |  |  | 
CCc1nc2c(C)cc(-c3ccc(CN4CCN(CC)CC4)cc3)cn2c1NC(=O)OCc1ccc(F)c(F)c1 | 0.171 µM |  |  |  |  |  |  | 
CCc1nc2c(C)cc(-c3ccc(CN(CCO)CCO)cc3)cn2c1NC(=O)OCc1cc(Cl)cc(Cl)c1 | 0.071 µM |  |  |  |  |  |  | 
CCc1nc2c(C)cc(-c3ccc(CN4CCCC4)cc3)cn2c1NC(=O)OCc1cc(Cl)cc(Cl)c1 | 0.14 µM |  |  |  |  |  |  | 
CCc1nc2c(C)cc(-c3ccc(CN4CCN(CCO)CC4)cc3)cn2c1NC(=O)OCc1ccc(F)cc1 | 0.0071 µM | > 20 µM | > 20 µM | > 20 µM | > 20 µM | > 20 µM | > 20 µM | > 20 µM
CCc1nc2c(C)cc(-c3ccc(CNCCO)cc3)cn2c1NC(=O)OCc1cc(Cl)cc(Cl)c1 | 0.034 µM | > 20 µM | > 20 µM | > 20 µM |  | > 20 µM |  | 
CCc1nc2c(C)cc(-c3ccc(CN4CCN(CCO)CC4)cc3)cn2c1NC(=O)OCc1ccc(C(F)(F)F)cc1 | 0.081 µM |  | 6.09 µM | 5.06 µM | 1.98 µM | 7.01 µM |  | 5.67 µM
CCc1nc2c(C)cc(-c3ccc(CN4CCC[C@H]4CO)cc3)cn2c1NC(=O)OCc1cc(Cl)cc(Cl)c1 | 0.041 µM |  |  | 5.78 µM | 2.51 µM |  |  | 
CCc1nc2c(C)cc(-c3ccc(CN4CCOCC4)cc3)cn2c1NC(=O)OCc1ccc(OC)c(Cl)c1 | 0.0335 µM | > 20 µM | > 20 µM | > 20 µM | > 20 µM | > 20 µM | > 20 µM | > 20 µM
CCc1nc2c(C)cc(-c3ccc(CN4CCOCC4)cc3)cn2c1NC(=O)OCc1cc(Cl)cc(Cl)c1 | 0.129 µM |  |  |  |  |  |  | 
CCc1nc2c(C)cc(N3CCN(CC(=O)N4CC(O)C4)CC3)cn2c1N(C)c1nc(-c2ccc(F)cc2)c(C#N)s1 [ZIRITAXESTAT] |  | > 20 µM | > 20 µM | > 20 µM | > 20 µM | > 20 µM | > 20 µM | > 20 µM
CCc1nc2c(C)cc(-c3ccc(CN4CCN(CCO)CC4)cc3)cn2c1NC(=O)OCc1ccc(F)c(F)c1 | 0.041 µM | 4.83 µM | 10.6 µM | 5.58 µM | 5 µM | 9.51 µM | 9.65 µM | 
CCc1nc2c(C)cc(-c3ccc(CO)cc3)cn2c1NC(=O)OCc1ccc(F)c(F)c1 | > 1 µM |  |  |  |  |  |  | 
CCc1nc2c(C)cc(-c3ccc(CN4CCC(C)CC4)cc3)cn2c1NC(=O)OCc1cc(Cl)cc(Cl)c1 | 0.024 µM | 5.83 µM | 4.85 µM | 8.18 µM | 2.13 µM | 3.98 µM | 5.15 µM | 4.04 µM
CCc1nc2c(C)cc(-c3ccc(CN4CCN(C)CC4)cc3)cn2c1NC(=O)OCc1ccc(F)c(F)c1 | 0.154 µM | 6.23 µM | 4.94 µM | > 20 µM | 3.59 µM | 6.44 µM |  | 
O=C(CCN1CCN(C(=O)OCc2cc(Cl)cc(Cl)c2)CC1)c1ccc2[nH]c(=O)oc2c1 |  | > 20 µM | > 20 µM | > 20 µM | 9.58 µM | > 20 µM | > 20 µM | > 20 µM
CCc1nc2c(C)cc(-c3ccc(CN4CCC[C@H]4CO)cc3)cn2c1NC(=O)OCc1ccc(F)cc1 | 0.0264 µM | > 20 µM | > 20 µM | > 20 µM | > 20 µM | > 20 µM | > 20 µM | > 20 µM
CCc1nc2c(C)cc(-c3ccc(CN4CCN(C)CC4)cc3)cn2c1NC(=O)OCc1ccc(C(F)(F)F)cc1 | 0.313 µM | 4.31 µM | > 20 µM | > 20 µM | > 20 µM | > 20 µM |  | 
